In patent US20240174669A1, “CRYSTALLINE FORMS OF A PARP1 INHIBITOR” (XinThera, Inc., priority 2022, published 2024):
Converted amounts (≈) assume the structure as drawn.

Assays:
Format in all cases: physicochemical
[1] = Solubility in 0.5% MC and 0.5% MC pH 3 citrate buffer; conditions: for solubility: thermodynamic from solid
Method: Solubility of freebase Form II was first measured in 0.5% MC (400 cPs) and 0.5% MC (400 cPs) pH 3 citrate buffer. About 5 mg of Form II (Lot#1) was stirred in 1 mL of media at RT for ˜2 hours. The suspension was filtered, with filtrates analyzed by HPLC and remaining solids tested by XRPD. […] Therefore, 0.5% MC pH 3 buffer was selected for suspension formulation stability study.

Solid-state stability = assay: Solid-state stability
Method: Solid-state stability of free base Form II (Lot#1) was conducted at 60° C. (capped) and 40° C./75% RH (open) for 7 days. The stability sample was dissolved in diluent to prepare solution at ˜0.5 mg/mL for HPLC purity analysis. Solid samples were analyzed by XRPD to check the crystalline form. […] (capped) and 40° C./75% RH (open) after 7 days.

[2] = Purity of filtrates / degradation in bio-relevant media (FeSSIF); conditions: for HPLC Purity API, Sample 1 / impurity RRT 1.74 / impurity RRT 1.91 / impurity RRT 1.95 / HPLC Purity API, Sample 2 / impurity RRT 1.09: FeSSIF filtrate, 220 nm; for HPLC Purity API, Sample 1 / impurity RRT 1.74 / impurity RRT 1.91 / impurity RRT 1.95 / impurity RRT 1.09: Sample 1; for Filtrate Purity 220 nm-24 h: 37° C., starting purity 99.26%
Method: About 15 mg of freebase Form II was weighed into sample vials, and then 3 mL of each media was added to make suspensions, respectively. At 0.5, 2 and 24 hours, about 1 mL of each suspension was filtered, the filtrate was analyzed by HPLC and pH, and the filter cake was analyzed by XRPD. Duplicated samples were prepared for each media.
Compared to control pH buffers, the solubility increased to ˜20 μg/mL in FaSSIF and ˜100 μg/mL in FeSSIF, possibly due to the solubilization effect of bile salt. […] Compared to FaSSIF, concentration of bile salt is 5-fold in FeSSIF. The degradation issue in FeSSIF was confirmed with another two batches (Lot #3 and Lot #2) of freebase Form II at 0.5-8 hours, as summarized in Table 12 and Table 13. Several impurities increased rapidly with time.
HPLC analysis was performed with an Agilent HPLC 1260 series instrument.

[3] = DVS moisture sorption (hygroscopicity)
Method: Moisture sorption/desorption data were collected on a DVS instrument. About 75 mg of a sample was placed into a tared sample chamber and automatically weighed. The anhydrate was analyzed with the setting parameters in the table below.

[4] = Suspension formulation stability in 0.5% MC pH 3 buffer
Method: About 9 mg of free base Form II (Lot#1) was added into 0.3 mL of 0.5% MC pH 3 buffer, and stirred at RT for 30 min to make a suspension with 30 mg/mL drug loading (Day 0 sample). The suspension samples in vials, prepared at the same time, were kept at RT for 3 or 7 days. At each time point, the whole suspension in a vial was dissolved in 8.7 mL water/ACN (1:1, v/v) and then was analyzed by HPLC. Sedimentation of suspension was checked by visual observation, and the solids in another vial were tested by PLM and XRPD.

[5] = 0.5% MC pH 3 buffer (100 mM citrate), RT, ~2 hours
[6] = 0.5% MC pH 3 citrate buffer, up to 7 days

CNC(=O)c1ccc(N2CCN(Cc3cnc4cc(C5CC5)c(=O)[nH]c4c3)CC2)cn1 [Freebase Form II, 5-(4-((7-cyclopropyl-6-oxo-5,6-dihydro-1,5-naphthyridin-3-yl)methyl)piperazin-1-yl)-N-methylpicolinamide]
solubility ([1]; 0.5% MC (400 cPs) pH 3 citrate buffer, pH 3, aqueous with cosolvent or surfactant or cyclodextrin, 0.5% MC pH 3 buffer (100 mM citrate), initial pH 3.0, RT, ~2 hours): 4500 µg/mL (≈ 10800 µM)
solubility ([1]; 0.5% MC (400 cPs), aqueous with cosolvent or surfactant or cyclodextrin, 0.5% MC, RT, ~2 hours): < 10 µg/mL
solubility ([1]; 0.5% MC (400 cPs), aqueous with cosolvent or surfactant or cyclodextrin, RT, ~2 hours): 6 µg/mL (≈ 14.3 µM)
Filtrate Purity 254 nm [1, 5]: 99.25%
XRPD of remaining solids [1, 5]: Unchanged
form change (XRPD) ([1]; both media: 0.5% MC and 0.5% MC pH 3 citrate buffer): No form change was observed
Purity (area %) @7 D 40° C./75% RH (Solid-state stability; 40° C./75% RH (open), 7 days): 99.26 area %
XRPD @7 D 40° C./75% RH (Solid-state stability; 40° C./75% RH (open), 7 days): Unchanged
solid-state stability (Solid-state stability; 60° C. (capped) and 40° C./75% RH (open), after 7 days): physically and chemically stable
Purity (area %) @7 D 60° C. (Solid-state stability; 60° C. (capped), 7 days): 99.25 area %
XRPD @7 D 60° C. (Solid-state stability; 60° C. (capped), 7 days): Unchanged
Purity (area %) Initial (Solid-state stability; initial): 99.26 area %
purity of filtrates ([2]; FeSSIF): decreased rapidly
HPLC Purity API, Sample 1 ([2]; 0.5 hr, listed as Lot# 2): 96.72 area %
impurity RRT 1.74 ([2]; 0.5 hr, listed as Lot# 2): 0.33 area %
impurity RRT 1.91 ([2]; 0.5 hr, listed as Lot# 2): 1.00 area %
impurity RRT 1.95 ([2]; 0.5 hr, listed as Lot# 2): 0.32 area %
HPLC Purity API, Sample 1 ([2]; 0.5 hr, listed as Lot# 3): 92.74 area %
impurity RRT 1.74 ([2]; 0.5 hr, listed as Lot# 3): 0.27 area %
impurity RRT 1.91 ([2]; 0.5 hr, listed as Lot# 3): 0.72 area %
impurity RRT 1.95 ([2]; 0.5 hr, listed as Lot# 3): 0.24 area %
HPLC Purity API, Sample 2 ([2]; 0.5 hr, listed as Lot# 2): 96.89 area %
HPLC Purity API, Sample 2 ([2]; 0.5 hr, listed as Lot# 3): 92.57 area %
HPLC Purity API, Sample 1 ([2]; 2 hr, listed as Lot# 2): 80.67 area %
impurity RRT 1.09 ([2]; 2 hr, listed as Lot# 2): 1.18 area %
impurity RRT 1.74 ([2]; 2 hr, listed as Lot# 2): 1.52 area %
impurity RRT 1.91 ([2]; 2 hr, listed as Lot# 2): 5.63 area %
impurity RRT 1.95 ([2]; 2 hr, listed as Lot# 2): 0.89 area %
HPLC Purity API, Sample 1 ([2]; 2 hr, listed as Lot# 3): 91.52 area %
impurity RRT 1.09 ([2]; 2 hr, listed as Lot# 3): 0.22 area %
impurity RRT 1.74 ([2]; 2 hr, listed as Lot# 3): 0.35 area %
impurity RRT 1.91 ([2]; 2 hr, listed as Lot# 3): 1.09 area %
impurity RRT 1.95 ([2]; 2 hr, listed as Lot# 3): 0.39 area %
HPLC Purity API, Sample 2 ([2]; 2 hr, listed as Lot# 2): 77.22 area %
HPLC Purity API, Sample 2 ([2]; 2 hr, listed as Lot# 3): 90.33 area %
HPLC Purity API, Sample 1 ([2]; 4 hr, listed as Lot# 2): 65.06 area %
impurity RRT 1.09 ([2]; 4 hr, listed as Lot# 2): 3.56 area %
impurity RRT 1.74 ([2]; 4 hr, listed as Lot# 2): 2.64 area %
impurity RRT 1.91 ([2]; 4 hr, listed as Lot# 2): 9.12 area %
impurity RRT 1.95 ([2]; 4 hr, listed as Lot# 2): 1.67 area %
HPLC Purity API, Sample 1 ([2]; 4 hr, listed as Lot# 3): 84.44 area %
impurity RRT 1.09 ([2]; 4 hr, listed as Lot# 3): 1.00 area %
impurity RRT 1.74 ([2]; 4 hr, listed as Lot# 3): 0.82 area %
impurity RRT 1.91 ([2]; 4 hr, listed as Lot# 3): 3.55 area %
impurity RRT 1.95 ([2]; 4 hr, listed as Lot# 3): 0.69 area %
HPLC Purity API, Sample 2 ([2]; 4 hr, listed as Lot# 2): 60.63 area %
HPLC Purity API, Sample 2 ([2]; 4 hr, listed as Lot# 3): 77.77 area %
HPLC Purity API, Sample 1 ([2]; 8 hr, listed as Lot# 2): 50.99 area %
impurity RRT 1.09 ([2]; 8 hr, listed as Lot# 2): 6.24 area %
impurity RRT 1.74 ([2]; 8 hr, listed as Lot# 2): 5.16 area %
impurity RRT 1.91 ([2]; 8 hr, listed as Lot# 2): 8.77 area %
impurity RRT 1.95 ([2]; 8 hr, listed as Lot# 2): 3.62 area %
HPLC Purity API, Sample 1 ([2]; 8 hr, listed as Lot# 3): 66.91 area %
impurity RRT 1.09 ([2]; 8 hr, listed as Lot# 3): 4.10 area %
impurity RRT 1.74 ([2]; 8 hr, listed as Lot# 3): 2.41 area %
impurity RRT 1.91 ([2]; 8 hr, listed as Lot# 3): 7.91 area %
impurity RRT 1.95 ([2]; 8 hr, listed as Lot# 3): 1.57 area %
HPLC Purity API, Sample 2 ([2]; 8 hr, listed as Lot# 2): 47.77 area %
HPLC Purity API, Sample 2 ([2]; 8 hr, listed as Lot# 3): 57.55 area %
Filtrate Purity 220 nm-24 h ([2]; FeSSIF): 55%
Filtrate Purity 220 nm-24 h ([2]; SGF): 99.28%
crystalline form after DVS test [3]: remained unchanged
hygroscopicity (DVS) [3]: non-hygroscopic
water uptake (DVS) ([3]; at 80% RH, 25° C.): 0.19%
crystalline form in suspension [4, 6]: remained unchanged
purity change in suspension [4, 6]: no purity decrease was observed
Purity (area %, 220 nm) Initial ([4]; initial, before suspension): 99.25 area %
sedimentation of suspension (visual observation) ([4]; kept at RT for 3 or 7 days, homogeneous again after swirling 1 min): Sedimentation was observed
Purity (area %, 220 nm) Day 0 ([4]; suspension in 0.5% MC pH 3 buffer (100 mM citrate), 30 mg/mL, RT, Day 0): 99.30 area %
Purity (area %, 220 nm) Day 3 ([4]; suspension in 0.5% MC pH 3 buffer (100 mM citrate), 30 mg/mL, RT, Day 3): 99.28 area %
Purity (area %, 220 nm) Day 7 ([4]; suspension in 0.5% MC pH 3 buffer (100 mM citrate), 30 mg/mL, RT, Day 7): 99.26 area %
